{"source": "patent US11733243B2", "about": "“Use of acamprosate to modulate ERK1/2 activation in animal models for FXS and ASD and individuals diagnosed with FXS and ASD” (Indiana University Research and Technology Corporation, priority 2013, dated 2023)", "key": {"fmr1 knockout mice": {"tested_on": "fmr1 knockout mice", "details": "mouse, in vivo; cited from earlier work"}, "subjects with FXS": {"tested_on": "subjects with FXS", "details": "cited from earlier work"}, "males with FXS": {"tested_on": "males with FXS", "details": "cited from earlier work"}, "mGluR5": {"biological_target": "T1, mGluR5 (Mus musculus, UniProt Q3UVX5)", "T1 construct": "host or cells: fmr1 knockout mouse, in vivo", "T1 sequence (Q3UVX5 19-1203)": "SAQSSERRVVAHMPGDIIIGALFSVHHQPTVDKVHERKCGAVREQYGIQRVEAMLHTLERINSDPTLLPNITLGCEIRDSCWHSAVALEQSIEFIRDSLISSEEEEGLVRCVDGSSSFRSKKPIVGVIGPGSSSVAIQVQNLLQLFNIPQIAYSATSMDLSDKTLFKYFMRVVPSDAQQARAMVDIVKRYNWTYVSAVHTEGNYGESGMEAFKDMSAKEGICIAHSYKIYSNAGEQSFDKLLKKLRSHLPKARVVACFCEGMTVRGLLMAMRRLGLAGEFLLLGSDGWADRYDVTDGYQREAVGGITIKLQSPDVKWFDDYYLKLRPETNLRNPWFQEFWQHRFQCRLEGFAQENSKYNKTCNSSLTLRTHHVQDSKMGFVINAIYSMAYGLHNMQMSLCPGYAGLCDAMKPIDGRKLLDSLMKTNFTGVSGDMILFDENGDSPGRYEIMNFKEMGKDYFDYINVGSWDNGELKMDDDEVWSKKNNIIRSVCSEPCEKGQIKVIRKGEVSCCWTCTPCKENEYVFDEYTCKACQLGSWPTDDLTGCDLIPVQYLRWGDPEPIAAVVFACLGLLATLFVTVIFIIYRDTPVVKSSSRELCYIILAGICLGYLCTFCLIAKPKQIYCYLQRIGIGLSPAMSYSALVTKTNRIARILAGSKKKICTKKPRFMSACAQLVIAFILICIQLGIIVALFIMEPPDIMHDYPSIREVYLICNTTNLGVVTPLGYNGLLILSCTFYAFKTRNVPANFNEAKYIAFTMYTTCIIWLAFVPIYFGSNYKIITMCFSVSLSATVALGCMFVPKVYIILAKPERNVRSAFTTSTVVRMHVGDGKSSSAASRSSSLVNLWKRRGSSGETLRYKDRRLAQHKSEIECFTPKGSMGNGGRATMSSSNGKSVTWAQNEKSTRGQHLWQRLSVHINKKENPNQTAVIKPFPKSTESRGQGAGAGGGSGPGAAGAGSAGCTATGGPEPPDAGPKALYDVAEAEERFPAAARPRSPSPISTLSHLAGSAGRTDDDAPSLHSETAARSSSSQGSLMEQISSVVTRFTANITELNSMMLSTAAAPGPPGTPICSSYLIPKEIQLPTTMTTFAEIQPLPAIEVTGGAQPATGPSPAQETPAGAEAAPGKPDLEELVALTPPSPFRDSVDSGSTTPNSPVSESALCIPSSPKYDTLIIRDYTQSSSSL", "details": "in vivo; cited from earlier work"}, "alcohol intake": {"tested_on": "alcohol intake", "details": "mouse, in vivo; cited from earlier work"}, "[1]": {"tested_on": "alcohol withdrawal associated anxiety", "details": "in vivo; cited from earlier work"}, "ERK/MAPK": {"tested_on": "ERK/MAPK", "test": "ICC of fixed lymphocytes for ERK/MAPK activity (anti-phospho-Thr202/Tyr204)", "assay_type": "cell-based, human", "details": "tamoxifen, 10 mM", "method": "Lymphocyte samples were prepared from patient's blood and plated onto a PDL-coated 24-well plate. Cells were fixed by adding 4% paraformaldehyde in PB solution (at RT). Excess paraformaldehyde solution was aspirate out. The fixed cells were washed three times gently with cold DPBS (Bulbecco-modified phosphate buffered saline). Then 0.12% Triton X-100 (diluted in DPBS) was added onto the cells at RT and incubated for 20 minutes at RT. Excess Triton X solution was aspirated out and cells were washed three times (gently) with chilled DPBS. Cells were blocked with 10% horse serum (HS) (diluted in DPBS) for 20 minutes at RT. Unbound blocking agent was washed off. The primary antibody diluted in 1% HS in DPBS was added. Generally a dilution of 1:250 was used. The antibody, which is raised in rabbit recognizes Phospho-Thr202/Tyr204 of ERK/MAPK, which indicates translocation of activated ERK/MAPK into the […] compartment.\nIncubation with the primary antibody was done for overnight at 4° C. Unbound primary antibody was washed off, and at this stage the plate can be stored at 4° C. Washed three times at RT with cold DPBS. Added Alexa Fluor conjugated goat anti rabbit (diluted 1:200 in DPBS) and incubated at RT for 1-2 hr. This reagent and this step is light sensitive to. For best results the reagent and this step of the procedure should be kept away from the light. […]"}, "fmr1 KO mice": {"tested_on": "fmr1 KO mice", "details": "mouse, in vivo; cited from earlier work"}, "adults with FXS": {"tested_on": "adults with FXS", "details": "single dose, cited from earlier work"}, "[2]": {"tested_on": "cerebellar granule cells from fmr1 knockout mice", "details": "cited from earlier work"}, "[3]": {"tested_on": "persons with FXS and comorbid ASD", "details": "6 persons; cited from earlier work"}, "ERK1/2": {"tested_on": "ERK1/2", "details": "adults with FXS; cited from earlier work"}}, "note": "Entries after “also recorded” stand apart in the source; their conditions may differ."}
{"smiles": "NC[C@H](CC(=O)O)c1ccc(Cl)cc1", "note": "(single isomer, unassigned) [STX209]", "values": [{"measurement": "effect on protein synthesis and dendritic spines", "setting": "fmr1 knockout mice", "value": "correction of aberrant protein synthesis and dendritic spine abnormalities"}, {"measurement": "ABC Irritability (ABC-I) subscale, primary outcome measure", "setting": "subjects with FXS; 63 subjects aged 6 to 40 years", "value": "not associated with improvement on the primary outcome measure"}, {"measurement": "ABC-SW and VABS Socialization, post-hoc 27 subject subset with baseline ABC-SW >8", "setting": "subjects with FXS; human, in vivo", "value": "significant STX209-associated improvement"}, {"measurement": "Social Avoidance scale (ABC-SA), post-hoc analysis", "setting": "subjects with FXS; human, in vivo", "value": "significant group-wide improvement"}, {"measurement": "subjects reporting sedation", "setting": "subjects with FXS; human, in vivo", "value": 8, "unit": "%"}, {"measurement": "tolerability", "setting": "subjects with FXS; human, in vivo", "value": "well tolerated"}]}
{"smiles": "COC(=O)N1CC[C@@H]2[C@H]1CCC[C@@]2(O)C#Cc1cccc(C)c1", "note": "[AFQ056]", "values": [{"measurement": "group treatment effect", "setting": "males with FXS; 30 males with FXS aged 18 to 35 years", "value": "not associated with significant group treatment effect"}, {"measurement": "response in 7 subject subset with full fmr1 gene methylation", "setting": "males with FXS; ABC subscales and total, CGI-I, Visual Analogue Scale, Repetitive Behavior Scale-Revised", "value": "significant response to AFQ056 compared to placebo"}]}
{"smiles": "Cc1cccc(C#Cc2ccccc2)n1", "note": "[MPEP, 2-methyl-6-(phenylethynyl)-pyridine]", "values": [{"measurement": "effect on phenotypic characteristics of the fmr1 mouse model", "setting": "mGluR5", "value": "reverse phenotypic characteristics, including audiogenic seizures, altered pre-pulse inhibition (PPI), and open field hyperactivity"}]}
{"smiles": "Cc1nc(C#Cc2cccnc2)cs1", "note": "[MTEP, 3-((2-Methyl-4-thiazolyl)ethynyl)pyridine]", "values": [{"measurement": "alcohol intake", "setting": "alcohol intake", "value": "reduced alcohol intake"}, {"measurement": "alcohol withdrawal associated anxiety effects", "setting": "[1]", "value": "reduce alcohol withdrawal associated anxiety effects"}]}
{"smiles": "CC/C(=C(\\c1ccccc1)c1ccc(OCCN(C)C)cc1)c1ccccc1", "note": "[Tamoxifen]", "values": [{"measurement": "ERK activation and translocation of ERK/MAPK (positive control)", "setting": "ERK/MAPK", "value": "induces ERK activation; also recorded: cytoplasmic localization of ERK 1/2"}]}
{"smiles": "CC(=O)[C@H]1CC[C@H]2[C@@H]3CC[C@H]4C[C@H](O)CC[C@]4(C)[C@H]3C(=O)C[C@]12C", "note": "[alphaxalone]", "values": [{"measurement": "effect on phenotype of fmr1 KO mice", "setting": "fmr1 KO mice", "value": "reductions in anxiety and rescue of audiogenic seizures"}]}
{"smiles": "CN1CC(=O)NC1=NC(=O)Nc1cccc(Cl)c1", "note": "[fenobam]", "values": [{"measurement": "subjects experiencing mild sedation", "setting": "adults with FXS; 12 adults with FXS", "value": 25, "unit": "%"}, {"measurement": "subjects who experienced clinical benefit", "setting": "adults with FXS; 12 adults with FXS, reductions in hyperactivity and anxiety", "value": 75, "unit": "%"}, {"measurement": "pharmacokinetics", "setting": "adults with FXS", "value": "variable pharmacokinetics"}, {"measurement": "tolerability", "setting": "adults with FXS", "value": "good tolerability"}]}
{"smiles": "Oc1noc2c1CCNC2", "note": "[gaboxadol]", "values": [{"measurement": "effect on phenotype of fmr1 KO mice", "setting": "fmr1 KO mice", "value": "restored neuron excitability deficits in the amygdala, reduced hyperactivity, and reduced PPI deficits"}]}
{"smiles": "CC12CC3CC(C)(C1)CC(N)(C3)C2", "note": "[memantine]", "values": [{"measurement": "dendritic spine development and synapse formation", "setting": "[2]", "value": "correction of dendritic spine development and synapse formation"}, {"measurement": "subjects who developed treatment limiting irritability", "setting": "[3]", "value": "Two"}, {"measurement": "subjects with clinical response (CGI-I very much improved or much improved)", "setting": "[3]", "value": 67, "unit": "%"}]}
{"smiles": "Nc1nc2ccc(OC(F)(F)F)cc2s1", "note": "[riluzole]", "values": [{"measurement": "ERK1/2 activation rates", "setting": "ERK1/2", "value": "modifies ERK1/2 activation rates"}]}
{"smiles": "NCCS(=O)(=O)O", "note": "[taurine]", "values": [{"measurement": "effect on phenotype of fmr1 KO mice", "setting": "fmr1 KO mice", "value": "Improvements in memory acquisition and retention"}]}
